According to ChEMBL document CHEMBL3588797, “Tetrazole activity against Candida albicans. The role of KEX2 mutations in the sensitivity to (±)-1-[5-(2-chlorophenyl)-2H-tetrazol-2-yl]propan-2-yl acetate” (Bioorg Med Chem Lett, 2015):
In brackets after ≈: the same amount, converted by molar mass. Activity calls are given as the source filed them. The calls are words filed in the database; no cut-off is given here.

Assays:
Candida albicans [1] = assay: Antifungal activity against Candida albicans 90028 ATCC assessed as inhibition of growth at 1 ug/ml after 48 hrs relative to control; assay type: functional
Candida albicans [2] = assay: Antifungal activity against Candida albicans 90028 ATCC assessed as inhibition of growth at 0.03 ug/ml after 48 hrs relative to control; assay type: functional
Candida albicans [3] = assay: Antifungal activity against Candida albicans 90028 ATCC assessed as inhibition of growth at 2 ug/ml after 48 hrs relative to control; assay type: functional
Candida albicans [4] = assay: Antifungal activity against Candida albicans 90028 ATCC assessed as inhibition of growth at 0.06 ug/ml after 48 hrs relative to control; assay type: functional
Candida albicans [5] = assay: Antifungal activity against Candida albicans 90028 ATCC assessed as inhibition of growth at 4 ug/ml after 48 hrs relative to control; assay type: functional
Candida albicans [6] = assay: Antifungal activity against Candida albicans 90028 ATCC assessed as inhibition of growth at 16 ug/ml after 48 hrs relative to control; assay type: functional
Candida albicans [7] = assay: Antifungal activity against Candida albicans 90028 ATCC assessed as inhibition of growth at 0.25 ug/ml after 48 hrs relative to control; assay type: functional
Candida albicans [8] = assay: Antifungal activity against Candida albicans 90028 ATCC assessed as inhibition of growth at 0.5 ug/ml after 48 hrs relative to control; assay type: functional
Candida albicans [9] = assay: Antifungal activity against Candida albicans 90028 ATCC assessed as inhibition of growth at 0.12 ug/ml after 48 hrs relative to control; assay type: functional
Candida albicans [10] = assay: Antifungal activity against Candida albicans 90028 ATCC assessed as inhibition of growth at 8 ug/ml after 48 hrs relative to control; assay type: functional
Candida albicans [11] = assay: Antifungal activity against Candida albicans 90028 ATCC assessed as decrease in turbidity after 48 hrs relative to control; assay type: functional
[12] = Cytotoxicity against african green monkey Vero cells assessed as reduction in cell viability at 64 to 256 ug/mL after 6 hrs by XTT assay; assay type: cell-based; details: chlorocebus sabaeus, read-out: INH
Candida albicans [13] = assay: Antifungal activity against Candida albicans 90028 ATCC assessed as reduction in 99% growth after 48 hrs relative to control; assay type: functional
Candida albicans [14] = assay: Inhibition of Candida albicans with loss of both copies KEX2 allele and both copies of URA3 CNA4 mutant adhesion to the Caco-2 cell line; assay type: functional, organism-based
Candida albicans [15] = assay: Inhibition of Candida albicans bioflim formation during Caco2 cell invasion assessed as lack of hyphea at 1 ug/ml after 18 hrs by confocal laser scanning microscopy; assay type: functional, organism-based; details: Caco-2
Candida albicans [16] = assay: Inhibition of Candida albicans 1008 with trp1/kex2 delta mutant adhesion to the Caco-2 cell line; assay type: functional
Candida albicans [17] = assay: Inhibition of Candida albicans 1008 adhesion to the Caco-2 cell line; assay type: functional
Candida albicans [18] = assay: Inhibition of Candida albicans bioflim formation during Caco2 cell invasion assessed as sessile growth at 16 ug/ml after 18 hrs by confocal laser scanning microscopy; assay type: functional, organism-based; details: Caco-2
Candida albicans [19] = assay: Inhibition of wild type Candida albicans adherence to Caco2 cells at 16 ug/ml after 18 hrs; assay type: functional; details: Caco-2, 18 h
Nakaseomyces glabratus = assay: Inhibition of Candida glabrate 1010 with kex2 delta mutant and functional TRP1 adhesion to the Caco-2 cell line; assay type: organism-based
Candida albicans [20] = assay: Inhibition of Candida albicans with loss of one copy KEX2 allele and both copies of URA3 CNA2 mutant adhesion to the Caco-2 cell line; assay type: functional
[21] = Cytotoxicity against african green monkey Vero cells assessed as reduction in cell viability at 4 to 32 ug/mL after 6 hrs by XTT assay; assay type: cell-based; details: chlorocebus sabaeus, read-out: INH
Candida albicans [22] = assay: Inhibition of Candida albicans kex delta CNA1 mutant adhesion to the Caco-2 cell line; assay type: functional, organism-based
Vero = assay: Cytotoxicity against african green monkey Vero cells assessed as reduction in cell viability at 2 to 0.125 ug/mL after 6 hrs by XTT assay; assay type: cell-based; details: chlorocebus sabaeus
Candida albicans [23] = assay: Inhibition of Wild type Candida albicans SC5314 adhesion to the Caco-2 cell line; assay type: functional

Structure (SMILES)	inhibition at 1 µg/mL (Candida albicans [1])	inhibition at 0.03 µg/mL (Candida albicans [2])	inhibition at 2 µg/mL (Candida albicans [3])	inhibition at 0.06 µg/mL (Candida albicans [4])	inhibition at 4 µg/mL (Candida albicans [5])	inhibition at 16 µg/mL (Candida albicans [6])	inhibition at 0.25 µg/mL (Candida albicans [7])	inhibition at 0.5 µg/mL (Candida albicans [8])	inhibition at 0.12 µg/mL (Candida albicans [9])	inhibition at 8 µg/mL (Candida albicans [10])	MIC (Candida albicans [11])	also measured
CC(O)Cn1nnc(-c2ccccc2)n1 (racemic)	98.8%	98.8%	98.8%	98.8%	98.9%	98.8%	98.7%	98.7%	98.7%	98.9%		
CC(O)CCn1nnc(-c2ccccc2Cl)n1 (racemic)	99%	98.8%	98.9%	98.9%	99%	99%	98.9%	99%	99%	99%	8 µg/mL (≈ 31.7 µM)	
CC(=O)OC(C)Cn1nnc(-c2ccccc2Cl)n1 (racemic)	99%	98.9%	99%	98.9%	99%	99%	99%	99%	99%	99%		cytotoxicity at 6 h [12]: 13%; MFC (Candida albicans [13]): 0.0313 µg/mL (≈ 0.112 µM); inhibition (Candida albicans [14]): inactive; inhibition (Candida albicans [15]): inactive; inhibition (INH) (Candida albicans [16]): 82.89%; inhibition (INH) (Candida albicans [17]): 42.3%; Activity (Candida albicans [18]): inactive; inhibition at 16 µg/mL (Candida albicans [19]): 86%; inhibition (Nakaseomyces glabratus): inactive; inhibition (INH) (Candida albicans [20]): 91%; cytotoxicity at 6 h [21]: 4%; inhibition (Candida albicans [22]): inactive; Activity (Vero): Non-toxic; inhibition (INH) (Candida albicans [23]): 86%
Cc1ccc(-c2nnn(CC(C)O)n2)cc1 (racemic)	98.8%	98.9%	98.9%	99%	98.9%	98.8%	99%	98.9%	98.9%	98.9%		
CC(=O)OC(C)CCn1nnc(-c2ccc(C)cc2)n1 (racemic)	98.9%	98.9%	99%	98.9%	99%	98.9%	99%	98.9%	98.9%	99%	4 µg/mL (≈ 14.6 µM)	
CC(=O)OC(C)CCn1nnc(-c2ccccc2Cl)n1 (racemic)	98.9%	98.9%	98.9%	98.9%	99%	98.9%	98.9%	98.9%	98.9%	99%	4 µg/mL (≈ 13.6 µM)	
CC(=O)OC(C)CCn1nnc(-c2ccccc2)n1 (racemic)	98.9%	98.9%	98.9%	98.9%	99%	98.8%	99%	98.9%	98.9%	99%	4 µg/mL (≈ 15.4 µM)	
Cc1ccc(-c2nnn(CCC(C)O)n2)cc1 (racemic)	98.9%	98.9%	98.9%	99%	99%	98.9%	98.9%	98.9%	98.9%	98.9%	4 µg/mL (≈ 17.2 µM)	
C[C@@H]1[C@H](O)[C@@H](C)/C=C/C=C/C=C/C=C/C=C/C=C/C=C/[C@H](O[C@@H]2O[C@H](C)[C@@H](O)[C@H](N)[C@@H]2O)C[C@@H]2O[C@](O)(C[C@@H](O)C[C@@H](O)[C@H](O)CC[C@@H](O)C[C@@H](O)CC(=O)O[C@H]1C)C[C@H](O)[C@H]2C(=O)O [AMPHOTERICIN B]								100%				
CC(O)Cn1nnc(-c2ccccc2Cl)n1 (racemic)	99%	98.9%	98.9%	99%	99%	98.9%	99%	99.1%	99%	99%	0.125 µg/mL (≈ 0.524 µM)	
CC(=O)OC(C)Cn1nnc(-c2ccc(C)cc2)n1 (racemic)	99.1%	98.7%	99%	98.9%	99.1%	99%	98.9%	99%	99%	99%	0.5 µg/mL (≈ 1.92 µM)	
CC(O)CCn1nnc(-c2ccccc2)n1 (racemic)	99%	98.8%	98.9%	98.9%	99%	98.9%	99%	99%	99%	98.9%	0.125 µg/mL (≈ 0.573 µM)	
